# Strand notation (5' to 3'): a small letter for the sugar, then the base; units joined by * are phosphorothioate-linked, units joined directly phosphodiester-linked; [ ] holds rarer units or linkages, { } end groups; capitals alone tell only the bases. e = 2'-O-(2-methoxyethyl) (MOE); [5mC] = 5-methylcytosine; d = 2'-deoxy (DNA)
# Assays:
# [1] = Tolerability in CD1 mice: hematology assays (Example 41); conditions: 50 mg/kg s.c. twice per week for 6 weeks, blood
# blood coagulation = experiment: PT and aPTT assay in cynomolgus monkeys (Example 45); format: in vivo; conditions: escalating dose regimen, platelet poor plasma
# Protocol: (§1) Groups, each consisting of two male and three female monkeys, were injected subcutaneously with ISIS 416838, ISIS 416850, ISIS 416858, ISIS 416864, or ISIS 417002 in escalating doses. Antisense oligonucleotide was administered to the monkeys at 5 mg/kg three times per a week for week 1; 5 mg/kg twice per week for weeks 2 and 3; 10 mg/kg three times per week for week 4; 10 mg/kg twice per week for weeks 5 and 6; 25 mg/kg three times per week for week 7; and 25 mg/kg twice per week for weeks 8, 9, 10, 11, and 12. One control group, consisting of two male and three female monkeys, was injected subcutaneously with PBS according to the same dosing regimen. An additional experimental group, consisting of two male and three female monkeys, was injected subcutaneously with ISIS 416850 in a chronic, lower dose regimen. Antisense oligonucleotide was administered to the monkeys at 5 mg/kg three times per week for week 1; 5 mg/kg twice per week for week 2 and 3; 10 mg/kg three times per week for week 4; and 10 mg/kg twice per week for weeks 5 to 12. Body weights were measured weekly. Blood samples were collected 14 days and 5 days before the start of treatment and subsequently once per week for Factor 11 protein activity analysis in plasma, fibrinogen measurement, PT and aPTT measurements, bleeding times, and measurement of various hematologic factors. On day 85, the monkeys were euthanized by exsanguination while under deep anesthesia, and organs harvested for further analysis.
# Blood samples were collected in tubes containing sodium citrate. PT and aPTT were determined in duplicate with an ACL 9000 coagulation instrument (Instrumentation Laboratory, Italy). The results were interpolated on a standard curve of serial dilutions citrated control monkey plasma tested to give a reported result in percent normal.
# Prothrombin Time (PT) and Activated Partial Thromboplastin Time (aPTT) were measured using platelet poor plasma (PPP) from monkeys treated with ISIS oligonucleotides. PT and aPTT values are provided in Tables 116 and 117 and are reported as International Normalized Ratio (INR) values. INR values for PT and aPTT were determined by dividing the PT or aPTT value for each experimental group by the PT or aPTT for the PBS treated group. This ratio was then raised to the power of the International Sensitivity Index (ISI) of the tissue factor used. The ISIS oligonucleotide, ISIS 416850, given with the chronic dose regimen is distinguished from the other oligonucleotides with an asterisk (*).
# Factor 11 activity = experiment: Factor 11 protein activity, F11 assay based on clotting time (Example 45); format: in vivo, cynomolgus monkeys; conditions: escalating dose regimen
# Protocol: as §1
# Blood samples were collected at various time points and Factor 11 proenzyme was measured using a F11 assay based on clotting time. Clotting times were determined in duplicate with a ST4 semi-automated coagulation instrument (Diagnostica Stago, NJ). Thirty μl of citrated sample plasma diluted 1/20 in HEPES-NaCl buffer with BSA was incubated with 30 μl aPTT reagent (Automated aPTT, Organon Technika, NC) and 30 μl of citrated plasma deficient of Factor 11 (George King Bio-Medical Inc.) at 37° C. for 5 min, followed by the addition of 30 μl of 25 mM CaCl2) to initiate clotting. Results were interpolated on a standard curve of serially diluted citrated control plasma.
# Results are presented in Table 118 as percent inhibition of Factor 11 activity, relative to PBS control. The ISIS oligonucleotide, ISIS 416850, given with the chronic dose regimen is distinguished from the other oligonucleotides with an asterisk (*).
substance,measurement,setting,value
ISIS 445522: 5-8-5 or 6-8-6 MOE microwalk gapmer (Table 44) (antisense eG*e[5mC]*eA*e[5mC]*eA*dG*dT*dT*dT*d[5mC]*dT*dG*dG*e[5mC]*eA*eG*eG*e[5mC]),HCT,[1],49%
same,Lymphocyte,[1],3997
same,Neutrophil,[1],698
same,Platelets,[1],1005
same,RBC,[1],9.7
same,WBC,[1],5
same,hemoglobin,[1],14.6 g/dL
ISIS 445531: 5-8-5 or 6-8-6 MOE microwalk gapmer (Table 44) (antisense eG*eG*e[5mC]*eA*eT*dT*dG*dG*dT*dG*d[5mC]*dA*d[5mC]*eA*eG*eT*eT*eT),HCT,[1],48%
same,Lymphocyte,[1],6125
same,Neutrophil,[1],2341
same,Platelets,[1],996
same,RBC,[1],9.4
same,WBC,[1],9
same,hemoglobin,[1],14.5 g/dL
"ISIS 416838: MOE gapmer, nucleobases 1018 to 1042 of SEQ ID NO: 1 (Table 6) (antisense GCAACCGGGATGATGAGTGC; MOE gapmer, wing and gap sizes not given here)",PT ratio (INR),blood coagulation; day 8,1.03
same,aPTT ratio (INR),blood coagulation; day 8,1.07
same,PT ratio (INR),blood coagulation; day 15,1.03
same,aPTT ratio (INR),blood coagulation; day 15,1.05
same,PT ratio (INR),blood coagulation; day 22,1.07
same,aPTT ratio (INR),blood coagulation; day 22,1.20
same,PT ratio (INR),blood coagulation; day 29,1.03
same,aPTT ratio (INR),blood coagulation; day 29,1.19
same,PT ratio (INR),blood coagulation; day 36,1.05
same,aPTT ratio (INR),blood coagulation; day 36,1.20
same,PT ratio (INR),blood coagulation; day 43,1.03
same,aPTT ratio (INR),blood coagulation; day 43,1.18
same,PT ratio (INR),blood coagulation; day 50,1.02
same,aPTT ratio (INR),blood coagulation; day 50,1.25
same,PT ratio (INR),blood coagulation; day 57,1.04
same,aPTT ratio (INR),blood coagulation; day 57,1.21
same,PT ratio (INR),blood coagulation; day 64,1.04
same,aPTT ratio (INR),blood coagulation; day 64,1.18
same,PT ratio (INR),blood coagulation; day 71,1.02
same,aPTT ratio (INR),blood coagulation; day 71,1.15
same,PT ratio (INR),blood coagulation; day 78,1.04
same,aPTT ratio (INR),blood coagulation; day 78,1.19
same,PT ratio (INR),blood coagulation; day 85,1.05
same,aPTT ratio (INR),blood coagulation; day 85,1.22
same,PT ratio (INR),blood coagulation; day −5,1.00
same,aPTT ratio (INR),blood coagulation; day −5,1.00
same,PT ratio (INR),blood coagulation; day −14,1.00
same,aPTT ratio (INR),blood coagulation; day −14,1.00
same,"percent inhibition of Factor 11 activity, relative to PBS control",Factor 11 activity; day 8,3%
same,"percent inhibition of Factor 11 activity, relative to PBS control",Factor 11 activity; day 15,4%
same,"percent inhibition of Factor 11 activity, relative to PBS control",Factor 11 activity; day 22,5%
same,"percent inhibition of Factor 11 activity, relative to PBS control",Factor 11 activity; day 29,8%
same,"percent inhibition of Factor 11 activity, relative to PBS control",Factor 11 activity; day 36,11%
same,"percent inhibition of Factor 11 activity, relative to PBS control",Factor 11 activity; day 43,5%
same,"percent inhibition of Factor 11 activity, relative to PBS control",Factor 11 activity; day 50,8%
same,"percent inhibition of Factor 11 activity, relative to PBS control",Factor 11 activity; day 57,10%
same,"percent inhibition of Factor 11 activity, relative to PBS control",Factor 11 activity; day 64,11%
same,"percent inhibition of Factor 11 activity, relative to PBS control",Factor 11 activity; day 71,12%
same,"percent inhibition of Factor 11 activity, relative to PBS control",Factor 11 activity; day 78,10%
same,"percent inhibition of Factor 11 activity, relative to PBS control",Factor 11 activity; day 85,10%
same,"percent inhibition of Factor 11 activity, relative to PBS control",Factor 11 activity; day −5,0%
same,"percent inhibition of Factor 11 activity, relative to PBS control",Factor 11 activity; day −14,0%

# — patent publication US20230263822A1, “MODULATION OF FACTOR 11 EXPRESSION” (Ionis Pharmaceuticals, Inc., priority 2008, published 2023)
